Where only a bound is given, the exact number is not on record here.

The target in the test is ROCK2 protein (Homo sapiens, UniProt O75116). The test can be described thus: Degradation inducing activity of ROCK2 protein in HUVEC cells, Western blotting (Simple Western JESS). It is filed as cell-based. The arrangement: endogenous in cells; host or cells: HUVEC (ATCC CRL-1730). Conditions: HUVEC, 24 h; for inhibition at 1 µM: degradation rate at 1 µM; for inhibition at 10 µM: degradation rate at 10 µM. The procedure:
In vitro degradation inducing activity of ROCK2 protein of compounds of Examples was evaluated by Western Blotting (WB).
By a test compound, 10 mM DMSO solution was prepared, which was used as a 10 µM test compound solution. Further, the solution was diluted 10-fold with DMSO to prepare a 1 mM solution, which was used as a 1 µM test compound solution.
HUVEC cells (ATCC: CRL-1730, Lot: 70041472) were cultured in F-12K medium supplemented with 10% FBS, 0.1 mg/mL heparin, […] Endothelial Cell Growth Supplement (ECGS, Corning), and 1% Penicillin/Streptomycin. The HUVEC cells seeded in a 24 well plate at 50,000 cells/well/1 mL were cultured for 24 hours, and then 1 µL of DMSO or a test compound solution was added thereto and treatment was performed for 24 hours. Cells were harvested and lysed for 20 minutes on ice using lysis buffer (Cell Signaling Technology, Cat#9803) supplemented with protease inhibitor cocktail (Sigma, Cat#P8340; Roche, Cat#P11873580001), and phosphatase inhibitor cocktail (Sigma, Cat#P5726, P0044). The lysate was sonicated (15 seconds, amplitude 30%, 1 cycle) and then centrifuged at 12500 rpm for 15 minutes at 4°C. The protein concentration was determined by BCA assay kit (Thermo Fisher Scientific, Cat#23225).
The western blotting was performed using Simple Western JESS (protein simple). A cell lysis sample (protein amount; about 1.06 µg) was loaded on a plate of Simple Western JESS, and the expression level of ROCK2 protein was detected using a 12-230 kDa Wes Separation Module (Protein simple, Cat#SM-WO04), an Anti-Rabbit Detection Module for Wes (Protein simple, Cat#DM-001), and a Total Protein Detection Module for Wes (Protein simple, Cat#DM-TP01). As the primary antibody, a material obtained by diluting ROCK2 (D1B1) Rabbit mAb (Cell Signaling Technology, Cat#9029) at 1:10 was used, and as the secondary antibody, a material obtained by diluting HRP-labeled anti-rabbit IgG antibody (Cell Signaling Technology, Cat#7074S) at 1:100 was used. The expression level of the target protein was standardized using the total protein amount loaded as a reference. The standardized expression level data of the control (DMSO) was taken as 100%, and the degradation rate (%) was calculated from the average standardized expression level data of the test compound. All analysis steps, such as data detection and analysis, are fully automated.
With respect to the ROCK2 protein degradation rate of the test compound, the protein degradation rates (%) at the evaluation concentrations were set to A ≥ 75%, 75% > B ≥ 50%, 50% > C ≥ 25%, and D < 25%, and are shown in Table 7.
(In general: A western blot detects proteins with antibodies after separation by electrophoresis.)

Sequence of ROCK2 protein (O75116 whole entry): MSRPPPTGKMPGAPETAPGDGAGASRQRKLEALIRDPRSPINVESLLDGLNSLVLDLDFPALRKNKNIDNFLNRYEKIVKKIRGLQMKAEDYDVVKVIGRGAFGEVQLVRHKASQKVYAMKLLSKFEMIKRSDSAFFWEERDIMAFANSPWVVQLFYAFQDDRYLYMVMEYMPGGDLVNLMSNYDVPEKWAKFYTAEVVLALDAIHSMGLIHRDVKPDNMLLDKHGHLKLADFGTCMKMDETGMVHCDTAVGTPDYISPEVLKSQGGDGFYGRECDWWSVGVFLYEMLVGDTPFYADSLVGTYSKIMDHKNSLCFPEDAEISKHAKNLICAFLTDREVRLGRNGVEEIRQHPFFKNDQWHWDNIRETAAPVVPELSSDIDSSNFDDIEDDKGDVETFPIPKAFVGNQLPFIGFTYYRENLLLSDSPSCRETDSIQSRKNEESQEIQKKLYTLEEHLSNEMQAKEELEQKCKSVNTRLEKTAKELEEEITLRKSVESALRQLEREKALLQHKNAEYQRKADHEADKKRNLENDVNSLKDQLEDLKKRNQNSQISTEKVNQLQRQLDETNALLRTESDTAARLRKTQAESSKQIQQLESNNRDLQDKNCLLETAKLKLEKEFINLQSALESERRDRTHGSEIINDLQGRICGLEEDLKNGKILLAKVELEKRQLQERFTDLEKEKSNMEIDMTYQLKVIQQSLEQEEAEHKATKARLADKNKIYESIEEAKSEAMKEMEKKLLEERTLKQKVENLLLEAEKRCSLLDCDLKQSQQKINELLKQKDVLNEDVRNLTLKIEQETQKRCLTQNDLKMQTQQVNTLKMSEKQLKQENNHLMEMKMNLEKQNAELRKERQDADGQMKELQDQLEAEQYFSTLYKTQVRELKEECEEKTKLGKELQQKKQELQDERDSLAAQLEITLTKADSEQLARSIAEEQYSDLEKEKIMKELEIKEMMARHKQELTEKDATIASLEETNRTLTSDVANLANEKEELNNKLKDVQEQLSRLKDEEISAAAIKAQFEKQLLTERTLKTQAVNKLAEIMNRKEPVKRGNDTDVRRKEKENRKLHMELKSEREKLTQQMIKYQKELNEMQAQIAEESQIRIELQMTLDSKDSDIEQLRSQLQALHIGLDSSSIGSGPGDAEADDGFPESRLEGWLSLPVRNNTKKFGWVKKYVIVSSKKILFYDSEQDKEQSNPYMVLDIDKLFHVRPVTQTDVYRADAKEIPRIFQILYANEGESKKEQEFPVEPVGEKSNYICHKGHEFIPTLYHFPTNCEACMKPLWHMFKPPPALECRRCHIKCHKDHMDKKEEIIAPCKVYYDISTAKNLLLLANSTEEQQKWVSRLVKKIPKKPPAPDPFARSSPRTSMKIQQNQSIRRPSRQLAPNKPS

In the case of `C[C@@H]1CN(CC(=O)N2CC(C)(C)c3ncc(Cc4ccc(F)cc4)cc32)[C@@H](CN(C)CCOCCN[C@H](C)c2ccc(C(=O)Nc3ccncc3)cc2)CN1` [Example 1, 4-((R)-1-((2-(2-((((2R,5R)-1-(2-(6-(4-Fluorobenzyl)-3,3-dimethyl-2,3-dihydro-1H-pyrrolo[3,2-b]pyridin-1-yl)-2-oxoethyl)-5-methylpiperazin-2-yl)methyl)(methyl)amino)ethoxy)ethyl)amino)ethyl)-N-(pyridin-4-yl)benzamide], the inhibition – broadly, the percentage by which the read-out fell short of the control – at 1 µM lay in the range of 25 to 50% and the inhibition at 10 µM is no less than 75%.
On the same counts, the results for `C[C@@H]1CN(CC(=O)N2CC(C)(C)c3ncc(Cc4ccc(F)cc4)cc32)[C@@H](CN(C)CCOCCOCCN[C@H](C)c2ccc(C(=O)Nc3ccncc3)cc2)CN1` [Example 2, 4-((R)-1-((2R,5R)-1-(2-(6-(4-Fluorobenzyl)-3,3-dimethyl-2,3-dihydro-1H-pyrrolo[3,2-b]pyridin-1-yl)-2-oxoethyl)-5-methylpiperazin-2-yl)-2-methyl-5,8-dioxa-2,11-diazatridecan-12-yl)-N-(pyridin-4-yl)benzamide] are less than 25% and 50 to 75%.
In the case of `C[C@@H]1CN(CC(=O)N2CC(C)(C)c3ncc(Cc4ccc(F)cc4)cc32)[C@@H](CN(C)CCOCCOCCOCCOCCN[C@H](C)c2ccc(C(=O)Nc3ccncc3)cc2)CN1` [Example 4, 4-((R)-1-((2R,5R)-1-(2-(6-(4-Fluorobenzyl)-3,3-dimethyl-2,3-dihydro-1H-pyrrolo[3,2-b]pyridin-1-yl)-2-oxoethyl)-5-methylpiperazin-2-yl)-2-methyl-5,8,11,14-tetraoxa-2,17-diazanonadecan-18-yl)-N-(pyridin-4-yl)benzamide], the inhibition at 1 µM was no less than 75% and the inhibition at 10 µM is no less than 75%.
In the case of `C[C@@H]1CN(CC(=O)N2CC(C)(C)c3ncc(Cc4ccc(F)cc4)cc32)[C@@H](CN(C)CCOCCOCCOCCOCCOCCN[C@H](C)c2ccc(C(=O)Nc3ccncc3)cc2)CN1` [Example 5, 4-((R)-1-((2R,5R)-1-(2-(6-(4-Fluorobenzyl)-3,3-dimethyl-2,3-dihydro-1H-pyrrolo[3,2-b]pyridin-1-yl)-2-oxoethyl)-5-methylpiperazin-2-yl)-2-methyl-5,8,11,14,17-pentaoxa-2,20-diazadocosan-21-yl)-N-(pyridin-4-yl)benzamide], the inhibition at 1 µM fell in the range of 25 to 50% and the inhibition at 10 µM is less than 25%.
As to `C[C@@H]1CN(CC(=O)N2CC(C)(C)c3ncc(Cc4ccc(F)cc4)cc32)[C@@H](CN(C)CCOCCOCCOCCOCCOCCOCCN[C@H](C)c2ccc(C(=O)Nc3ccncc3)cc2)CN1` [Example 6, 4-((R)-1-((2R,5R)-1-(2-(6-(4-Fluorobenzyl)-3,3-dimethyl-2,3-dihydro-1H-pyrrolo[3,2-b]pyridin-1-yl)-2-oxoethyl)-5-methylpiperazin-2-yl)-2-methyl-5,8,11,14,17,20-hexaoxa-2,23-diazapentacosan-24-yl)-N-(pyridin-4-yl)benzamide], the inhibition at 1 µM lay in the range of 50 to 75% and the inhibition at 10 µM was no less than 75%.
The molecule `C[C@@H]1CN(CC(=O)N2CC(C)(C)c3ncc(Cc4ccc(F)cc4)cc32)[C@@H](CN(C)CCOCCOCCOCCOCCOCCOCCOCCN[C@H](C)c2ccc(C(=O)Nc3ccncc3)cc2)CN1` [Example 7, 4-((R)-1-((2R,5R)-1-(2-(6-(4-Fluorobenzyl)-3,3-dimethyl-2,3-dihydro-1H-pyrrolo[3,2-b]pyridin-1-yl)-2-oxoethyl)-5-methylpiperazin-2-yl)-2-methyl-5,8,11,14,17,20,23-heptaoxa-2,26-diazaoctacosan-27-yl)-N-(pyridin-4-yl)benzamide] came in with an inhibition at 1 µM of 50 to 75% and an inhibition at 10 µM of 50 to 75%.
The molecule `C[C@@H]1CN(CC(=O)N2CC(C)(C)c3ncc(Cc4ccc(F)cc4)cc32)[C@@H](CN(C)CCOCCN[C@H](Cc2cccc(F)c2)C(=O)Nc2ccc(-c3ccncc3)cc2)CN1` [Example 8, (R)-2-((2-(2-((((2R,5R)-1-(2-(6-(4-Fluorobenzyl)-3,3-dimethyl-2,3-dihydro-1H-pyrrolo[3,2-b]pyridin-1-yl)-2-oxoethyl)-5-methylpiperazin-2-yl)methyl) (methyl)amino)ethoxy)ethyl)amino)-3-(3-fluorophenyl)-N-(4-(pyridin-4-yl)phenyl)propanamide] registered an inhibition at 1 µM of 25 to 50% and an inhibition at 10 µM of no less than 75%.
In turn, `C[C@@H]1CN(CC(=O)N2CC(C)(C)c3ncc(Cc4ccc(F)cc4)cc32)[C@@H](CN(C)CCOCCOCCOCCN[C@H](Cc2cccc(F)c2)C(=O)Nc2ccc(-c3ccncc3)cc2)CN1` [Example 10, (R)-15-(3-Fluorobenzyl)-1-((2R,5R)-1-(2-(6-(4-fluorobenzyl)-3,3-dimethyl-2,3-dihydro-1H-pyrrolo[3,2-b]pyridin-1-yl)-2-oxoethyl)-5-methylpiperazin-2-yl)-2-methyl-N-(4-(pyridin-4-yl)phenyl)-5,8,11-trioxa-2,14-diazahexadecan-16-amide] came in with an inhibition at 1 µM of 25 to 50% and an inhibition at 10 µM of no less than 75%.
Molecule `C[C@@H]1CN(CC(=O)N2CC(C)(C)c3ncc(Cc4ccc(F)cc4)cc32)[C@@H](CN(C)CCOCCOCCOCCOCCN[C@H](Cc2cccc(F)c2)C(=O)Nc2ccc(-c3ccncc3)cc2)CN1` [Example 11, (R)-18-(3-Fluorobenzyl)-1-((2R,5R)-1-(2-(6-(4-fluorobenzyl)-3,3-dimethyl-2,3-dihydro-1H-pyrrolo[3,2-b]pyridin-1-yl)-2-oxoethyl)-5-methylpiperazin-2-yl)-2-methyl-N-(4-(pyridin-4-yl)phenyl)-5,8,11,14-tetraoxa-2,17-diazanonadecan-19-amide] showed an inhibition at 1 µM of 50 to 75% and an inhibition at 10 µM of no less than 75%.
In the case of `C[C@@H]1CN(CC(=O)N2CC(C)(C)c3ncc(Cc4ccc(F)cc4)cc32)[C@@H](CN(C)CCOCCOCCOCCOCCOCCN[C@H](Cc2cccc(F)c2)C(=O)Nc2ccc(-c3ccncc3)cc2)CN1` [Example 12, (R)-21-(3-Fluorobenzyl)-1-((2R,5R)-1-(2-(6-(4-fluorobenzyl)-3,3-dimethyl-2,3-dihydro-1H-pyrrolo[3,2-b]pyridin-1-yl)-2-oxoethyl)-5-methylpiperazin-2-yl)-2-methyl-N-(4-(pyridin-4-yl)phenyl)-5,8,11,14,17-pentaoxa-2,20-diazadocosan-22-amide], the inhibition at 1 µM was less than 25% and the inhibition at 10 µM lay within 25 to 50%.
On to `C[C@@H]1CN(CC(=O)N2CC(C)(C)c3ncc(Cc4ccc(F)cc4)cc32)[C@@H](CN(C)CCOCCOCCOCCOCCOCCOCCN[C@H](Cc2cccc(F)c2)C(=O)Nc2ccc(-c3ccncc3)cc2)CN1` [Example 13, (R)-24-(3-Fluorobenzyl)-1-((2R,5R)-1-(2-(6-(4-fluorobenzyl)-3,3-dimethyl-2,3-dihydro-1H-pyrrolo[3,2-b]pyridin-1-yl)-2-oxoethyl)-5-methylpiperazin-2-yl)-2-methyl-N-(4-(pyridin-4-yl)phenyl)-5,8,11,14,17,20-hexaoxa-2,23-diazapentacosan-25-amide], for which the inhibition at 1 µM was less than 25% and the inhibition at 10 µM is less than 25%.
The molecule `C[C@@H]1CN(CC(=O)N2CC(C)(C)c3ncc(Cc4ccc(F)cc4)cc32)[C@@H](CN(C)CCOCCOCCOCCOCCOCCOCCOCCN[C@H](Cc2cccc(F)c2)C(=O)Nc2ccc(-c3ccncc3)cc2)CN1` [Example 14, (R)-27-(3-Fluorobenzyl)-1-((2R,5R)-1-(2-(6-(4-fluorobenzyl)-3,3-dimethyl-2,3-dihydro-1H-pyrrolo[3,2-b]pyridin-1-yl)-2-oxoethyl)-5-methylpiperazin-2-yl)-2-methyl-N-(4-(pyridin-4-yl)phenyl)-5,8,11,14,17,20,23-heptaoxa-2,26-diazaoctacosan-28-amide] returned an inhibition at 1 µM of 25 to 50% and an inhibition at 10 µM of no less than 75%.
Consider `C[C@@H]1CN(CC(=O)N2CC(C)(C)c3ncc(Cc4ccc(F)cc4)cc32)[C@@H](CN(C)CCOCCNC[C@@H](C(=O)Nc2ccc3cnccc3c2)c2ccccc2)CN1` [Example 15, (S)-3-((2-(2-((((2R,5R)-1-(2-(6-(4-Fluorobenzyl)-3,3-dimethyl-2,3-dihydro-1H-pyrrolo[3,2-b]pyridin-1-yl)-2-oxoethyl)-5-methylpiperazin-2-yl)methyl)(methyl)amino)ethoxy)ethyl)amino)-N-(isoquinolin-6-yl)-2-phenylpropanamide], for which the inhibition at 1 µM is less than 25% and the inhibition at 10 µM is no less than 75%.

(Values after patent EP4578856A1, “HETEROCYCLIC COMPOUND” (Ubience Inc., priority 2022, dated 2024).)
